Usually CC50 stands for the concentration at which the toxic effect on the cells reaches its halfway point. Lower therefore signals greater toxicity to the cells.

From patent US9845321B2, “1,3-dihydro-2H-benzimidazol-2-one derivatives substituted with heterocycles as respiratory syncytial virus antiviral agents” (JANSSEN SCIENCES IRELAND UC, priority 2012, dated 2017) come the findings set out here.

The nature of data set [1]: in vitro. As to conditions: human. The format is cell-based. The procedure:
(§1) Black 96-well clear-bottom microtiter plates (Corning, Amsterdam, The Netherlands) were filled in duplicate using a customized robot system with serial 4-fold dilutions of compound in a final volume of 50 μl culture medium [RPMI medium without phenol red, 10% FBS, 0.04% gentamycin (50 mg/ml) and 0.5% DMSO]. Then, 100 μl of a HeLa cell suspension (5×10^4 cells/ml) in culture medium was added to each well followed by the addition of 50 μl rgRSV224 (MOI=0.02) virus in culture medium using a multidrop dispenser (Thermo Scientific, Erembodegem, Belgium). rgRSV224 virus is an engineered virus that includes an additional GFP gene (Hallak et al, 2000) and was in-licensed from the NIH (Bethesda, Md., USA). Medium, virus- and mock-infected controls were included in each test. Cells were incubated at 37° C. in a 5% CO2 atmosphere. Three days post-virus exposure, viral replication was quantified by measuring GFP expression in the cells by a MSM laser microscope (Tibotec, Beerse, Belgium). The EC50 was defined as the 50% inhibitory concentration for GFP expression. In parallel, compounds were incubated for three days in a set of white 96-well microtitier plates (Corning) and the cytotoxicity of compounds in HeLa cells was determined by measuring the ATP content of the cells using the ATPlite kit (PerkinElmer, Zaventem, Belgium) according to the manufacturer's instructions. The CC50 was defined as the 50% concentration for cytotoxicity.

Data set [2] relates to rgRSV224 virus. Briefly: Antiviral activity: rgRSV224 (GFP-expressing RSV) replication in HeLa cells, GFP expression measured three days post-virus exposure. The class given is cell-based. The following applies: human respiratory syncytial virus, 72 h, read-out: WT activity pEC50 (converted). The method, then: as §1

On to `CS(=O)(=O)CCCn1c(Cn2c(=O)n(C3CNC3)c3ccc(F)cc32)cc2cc(Cl)ccc21` [Compound P3, 1-(azetidin-3-yl)-3-((5-chloro-1-(3-(methylsulfonyl)propyl)-1H-indol-2-yl)methyl)-5-fluoro-1H-benzo[d]imidazol-2(3H)-one], for which the CC50 at 3 days in data set [1] was 12600 nM. In data set [2], the EC50 was 100 nM. Take `CS(=O)(=O)CCCn1c(Cn2c(=O)n(C3CNC3)c3ccncc32)cc2cc(Cl)ccc21` [Compound P4, 1-(azetidin-3-yl)-3-((5-chloro-1-(3-(methylsulfonyl)propyl)-1H-indol-2-yl)methyl)-1H-imidazo[4,5-c]pyridin-2(3H)-one]: in data set [1], the half-maximal cytotoxic concentration (CC50) at 3 days was > 100000 nM. Further, the EC50 in data set [2] was 31.6 nM. The like results for `CC1(n2c(=O)n(Cc3cc4cc(Cl)ccc4n3CCCS(C)(=O)=O)c3cnccc32)CC1` [Compound P7, 3-((5-chloro-1-(3-(methylsulfonyl)propyl)-1H-indol-2-yl)methyl)-1-(1-methylcyclopropyl)-1H-imidazo[4,5-c]pyridin-2(3H)-one] were, in that order, 50100 nM and 0.501 nM. Regarding `CC1(n2c(=O)n(Cc3nc4nc(Cl)ccc4n3CCCC(F)(F)F)c3cnccc32)CC1` [Compound P9, 3-((5-chloro-1-(4,4,4-trifluorobutyl)-1H-imidazo[4,5-b]pyridin-2-yl)methyl)-1-(1-methylcyclopropyl)-1H-imidazo[4,5-c]pyridin-2(3H)-one], in data set [1], the CC50 at 3 days is > 100000 nM. For the same compound, the EC50 in data set [2] is 1 nM. Take `CC(C)(O)CN1CC(n2c(=O)n(Cc3cc4cc(Cl)ccc4n3CCCS(C)(=O)=O)c3cc(F)ccc32)C1` [Compound P12, 3-((5-chloro-1-(3(methylsulfonyl)propyl)-1H-indol-2-yl)methyl)-5-fluoro-1-(1-(2-hydroxy-2-methylpropyl)azetidin-3-yl)-1H-benzo[d]imidazol-2(3H)-one]: the 50% cytotoxic concentration (CC50) at 3 days in data set [1] is 12600 nM. Further, the EC50 in data set [2] is 39.8 nM. The matching figures for `COc1ccc(-n2c(=O)n(Cc3cc4cc(Cl)ccc4n3CCCC#N)c3cnccc32)cc1` [Compound P14, 4-(5-chloro-2-((1-(4-methoxyphenyl)-2-oxo-1H-imidazo[4,5-c]pyridin-3(2H)-yl)methyl)-1H-indol-1-yl)butanenitrile]: 12600 nM and 0.398 nM. `COc1ccc(-n2c(=O)n(Cc3cc4cc(Cl)ccc4n3CCCC#N)c3cnccc32)cc1F` [Compound P15, 4-(5-chloro-2-((1-(3-fluoro-4-methoxyphenyl)-2-oxo-1H-imidazo[4,5-c]pyridin-3(2H)-yl)methyl)-1H-indol-1-yl)butanenitrile]: the 50% cytotoxic concentration (CC50) at 3 days in data set [1] was > 100000 nM. Moreover, the EC50 in data set [2] is 1 nM. Take `COc1ccc(-n2c(=O)n(Cc3nc4nc(Cl)ccc4n3CCC(C)C)c3cnccc32)cc1` [Compound P16, 3-((5-chloro-1-isopentyl-1H-imidazo[4,5-b]pyridin-2-yl)methyl)-1-(4-methoxyphenyl)-1H-imidazo[4,5-c]pyridin-2(3H)-one]: the cytotoxic concentration (CC50) at 3 days in data set [1] is > 50100 nM. Besides, the EC50 in data set [2] was 1 nM. As for `COc1ccc(-n2c(=O)n(Cc3cc4nc(Cl)ccc4n3CCCC(F)(F)F)c3cnccc32)cc1` [Compound P17, 3-((5-chloro-1-(4,4,4-trifluorobutyl)-1H-pyrrolo[3,2-b]pyridin-2-yl)-methyl)-1-(4-methoxyphenyl)-1H-imidazo[4,5-c]pyridin-2(3H)-one], the CC50 at 3 days in data set [1] is > 100000 nM. Moreover, the EC50 in data set [2] is 10 nM.

Regarding `CC(C)CCn1c(Cn2c(=O)n(C3(C)CC3)c3ccncc32)nc2nc(Cl)ccc21` [Compound P18, 3-((5-chloro-1-isopentyl-1H-imidazo[4,5-b]pyridin-2-yl)methyl)-1-(1-methylcyclopropyl)-1H-imidazo[4,5-c]pyridin-2(3H)-one], the CC50 at 3 days in data set [1] was > 100000 nM. Also, the EC50 in data set [2] is 2 nM.

For `N#CCCCn1c(Cn2c(=O)n(-c3ccncc3)c3ccc(F)cc32)cc2cc(Cl)ccc21` [Compound P40, 4-(5-chloro-2-((6-fluoro-2-oxo-3-(pyridin-4-yl)-2,3-dihydro-1H-benzo[d]imidazol-1-yl)methyl)-1H-indol-1-yl)butanenitrile], the CC50 at 3 days in data set [1] is > 100000 nM.
